Experiments:
Type in all cases: in vivo, soybean
mutant line W23 = assay: Test B postemergence cross resistance test; conditions: Glycine max, post-emergence; for percent soybean injury at 16 g/ha: W23, 16 g/ha postemergence; for percent soybean injury at 64 g/ha: W23, 64 g/ha postemergence
From the text: (§1) In the second postemergence test, six true-breeding resistant mutant lines (W4, W17, W19, W20, W23, and W28) were compared to Williams 82 for cross resistance to a broad range of ALS inhibitors including eight sulfonylureas and three imidazolinones. Two seeds were planted in each 10 cm pot and allowed to grow to the second trifoliolate stage. Pots were not thinned back if both plants were at the proper stage. For each of 11 herbicides, two rates (Table VII) were selected based on previous data: the low rate was expected to cause significant injury (but not death) to Williams 82 and the high rate was expected to severely injure or kill Williams 82. All but a few line x rate treatments were replicated twice.
(§2) In both postemergence tests, plants were returned to the greenhouse after treatment and provided with ample light, moisture, and nutrients to support healthy plant growth. Two to three ratings per pot were recorded over a three-week period and averaged to obtain a single value for each pot For each herbicide, analysis of variance on injury ratings was performed separately. Fisher's least significant difference (LSD) was used to determine the significance of line mean differences at each herbicide rate using the 95% level of confidence. […]

mutant line W4 = assay: Test B postemergence cross resistance test; conditions: Glycine max, post-emergence; for % crop injury at 16 g/ha: W4, 16 g/ha postemergence; for % crop injury at 64 g/ha: W4, 64 g/ha postemergence
From the text: as §1, §2

mutant line W17 = assay: Test B postemergence cross resistance test; conditions: Glycine max, post-emergence; for soybean crop injury (%) at 16 g/ha: W17, 16 g/ha postemergence; for soybean crop injury (%) at 64 g/ha: W17, 64 g/ha postemergence
From the text: as §1, §2

mutant line W28 = assay: Test B postemergence cross resistance test; conditions: Glycine max, post-emergence; for mean % injury to soybean at 16 g/ha: W28, 16 g/ha postemergence; for mean % injury to soybean at 64 g/ha: W28, 64 g/ha postemergence
From the text: as §1, §2

Williams 82 [1] = assay: Test B postemergence cross resistance test; conditions: Glycine max, post-emergence
From the text: as §1, §2

mutant line W19 = assay: Test B postemergence cross resistance test; conditions: Glycine max, post-emergence; for percent soybean crop injury at 16 g/ha: W19, 16 g/ha postemergence; for percent soybean crop injury at 64 g/ha: W19, 64 g/ha postemergence
From the text: as §1, §2

mutant line W20 = assay: Test B postemergence cross resistance test; conditions: Glycine max, post-emergence; for percent crop injury at 16 g/ha: W20, 16 g/ha postemergence; for percent crop injury at 64 g/ha: W20, 64 g/ha postemergence
From the text: as §1
In both postemergence tests, plants were returned to the greenhouse after treatment and provided with ample light, moisture, and nutrients to support healthy plant growth. Two to three ratings per pot were recorded over a three-week period and averaged to obtain a single value for each pot For each herbicide, analysis of variance on injury ratings was performed separately. Fisher's least significant difference (LSD) was used to determine the significance of line mean differences at each herbicide rate using the 95% level of confidence.

Mutant W4-4 = assay: Postemergence herbicide spray test of W4-4 (Table VII-A); conditions: two weeks after treatment
Protocol: (§3) To investigate this hypothesis, a postemergence herbicide spray test was conducted to compare the reaction of W4-4 to both W20 and wild-type Williams. The applicant was particularly interested in the resistance of W4-4 to herbicide treatments that were injurious to both Williams and W20 in a previous test (Table VII). […] Twenty-four plants each of W4-4, W20, and Williams were planted in separate 10 cm pots and allowed to grow to the second trifoliolate stage. Each pot constituted a single experimental unit receiving a single herbicide treatment. Herbicide treatments (Table VIIA) were applied as described for the first postemergence test and were replicated twice. Control plants were sprayed with the spray carrier solution only (water with 0.25% X77 surfactant). At two weeks after treatment, each plant was rated for % herbicide injury as described in Table VIII. Analysis of variance on injury ratings was performed separately for each herbicide to calculate treatment means and standard errors. Fisher's least significant difference (LSD) was used to determine the significance of line means differences at each herbicide rate using the 95% level of confidence. […]

mutant W20 [2] = assay: as above; conditions: two weeks after treatment
Protocol: as §3

Williams 82 [3] = assay: as above; conditions: two weeks after treatment
Protocol: as §3

mutant W20 [4] = assay: Test A postemergence herbicide spray, greenhouse pots
From the text: (§4) In the first post-emergence test, two true-breeding resistant mutant lines, W19 and W20, were compared to previously isolated tolerant mutants and wild-type Williams 82. Eighteen pots (20 cm diameter) of each soybean line (2 seeds per pot) were planted using a standard sterile potting mix. When the seedlings reached the second trifoliolate stage, plants were thinned back to one plant per pot. Each pot was then sprayed with a specific herbicide treatment using a conveyor belt spray apparatus to emulate field application. The nine different herbicide treatments included one rate (8 g/ha) of Compound 1 and two rates (8 and 32 g/ha) each of four other sulfonylurea herbicides (Compounds 2,3,7 and 8) (see Table VI) using a factorial treatment design with 2 replications.
as §2

Mutant 1-184A = assay: as above
From the text: as §4, §2

mutant W19 = assay: as above
From the text: as §4, §2

Williams 82 [5] = assay: as above
From the text: as §4, §2

Structure (SMILES)	percent soybean injury at 16 g/ha (mutant line W23) [%]	percent soybean injury at 64 g/ha (mutant line W23) [%]	% crop injury at 16 g/ha (mutant line W4) [%]	% crop injury at 64 g/ha (mutant line W4) [%]	soybean crop injury (%) at 16 g/ha (mutant line W17) [%]	soybean crop injury (%) at 64 g/ha (mutant line W17) [%]	mean % injury to soybean at 16 g/ha (mutant line W28) [%]	mean % injury to soybean at 64 g/ha (mutant line W28) [%]	percent soybean crop injury at 16 g/ha (mutant line W19) [%]	percent soybean crop injury at 64 g/ha (mutant line W19) [%]	percent crop injury at 16 g/ha (mutant line W20) [%]	percent crop injury at 64 g/ha (mutant line W20) [%]	also measured
COc1cc(OC)nc(NC(=O)NS(=O)(=O)c2ncccc2C(=O)N(C)C)n1 [Compound 6, 2-[[[[(4,6-dimethoxy-2-pyrimidinyl)amino]carbonyl]amino]sulfonyl]N,N-dimethyl-3-pyridinecarboxamide]	5	54	4	43	0	40	0	45	8	48	3	38	pest or weed control at 16 g/ha (Williams 82 [1]; read-out: mean % injury): 25%; pest or weed control at 64 g/ha (Williams 82 [1]; read-out: mean % injury): 66%; mean % injury (Mutant W4-4; W4-4, 64 g/ha postemergence): 0%; mean % injury (Mutant W4-4; W4-4, 125 g/ha postemergence): 8%; mean % injury (mutant W20 [2]; W20, 64 g/ha postemergence): 10%; mean % injury (mutant W20 [2]; W20, 125 g/ha postemergence): 28%; mean % injury (Williams 82 [3]; WM82, 64 g/ha postemergence): 60%; mean % injury (Williams 82 [3]; WM82, 125 g/ha postemergence): 68%
COC(=O)c1sccc1S(=O)(=O)NC(=O)Nc1nc(C)nc(OC)n1 [Compound 2, Methyl 3-[[[[(4-methoxy-6-methyl-1,3,5-triazine-2-yl)amino]carbonyl]amino]sulfonyl]-2-thiophenecarboxylate]	0	8	0	5	0	3	0	5	0	6	5	5	soybean crop injury at 16 g/ha (Williams 82 [1]; Wm 82, 16 g/ha postemergence): 70%; soybean crop injury at 64 g/ha (Williams 82 [1]; Wm 82, 64 g/ha postemergence): 91%; mean % injury (mutant W20 [4]; W20, 8 g/ha postemergence): 0%; mean % injury (mutant W20 [4]; W20, 32 g/ha postemergence): 6%; mean % injury (Mutant 1-184A; 8 g/ha postemergence): 13%; mean % injury (Mutant 1-184A; 32 g/ha postemergence): 58%; mean % injury (mutant W19; W19, 8 g/ha postemergence): 0%; mean % injury (mutant W19; W19, 32 g/ha postemergence): 7%; mean % injury (Williams 82 [5]; WM 82, 8 g/ha postemergence): 13%; mean % injury (Williams 82 [5]; WM 82, 32 g/ha postemergence): 63%

Reference: patent publication US5084082A, “Soybean plants with dominant selectable trait for herbicide resistance” (priority 1990, dated 1992)
